Test results as given in US9434759B1, “Cationic steroidal antimicrobial compounds and methods of manufacturing such compounds” (BRIGHAM YOUNG UNIVERSITY, priority 2015, dated 2016).

Tested on: Radiation Induced Oral Mucositis
Assay: Syrian Hamster Model Radiation Induced Oral Mucositis Study
Type: in vivo
Conditions: 40 Gy radiation Day 0
Experimental: Various CSA compounds were screened to determine and compare therapeutic effect on oral mucositis. The test was conducted according to a Syrian Hamster Model Radiation Induced Oral Mucositis Study Design as in Table 1. [table] The objective of the study was to identify compounds that can maintain oral mucositis score below 3 in hamster model according to the scoring system in Table 2. [table]

## CCCCCCCCNC(=O)CC[C@@H](C)[C@H]1CC[C@H]2[C@@H]3[C@H](OCCCN)C[C@@H]4C[C@H](OCCCN)CC[C@]4(C)[C@H]3C[C@H](OCCCN)[C@]12C [CSA-192]
Topical T.I.D. Day -1 to 28, 300 or 1000 ppm, mucositis evaluated Day 6 to 28
  reduction in oral mucositis (percent of animal days with mucositis, FIG. 2): greater than 90%
Topical T.I.D. Day -1 to 28, score 0-5 every 2 days, Day 6 to 28
  oral mucositis severity scores (FIG. 3): strongest and longest lasting reduction in oral mucositis
